Data from ChEMBL document CHEMBL1131813, “9-Deoxopodophyllotoxin derivatives as anti-cancer agents” (1999).

Key:
Conditions in all cases: Homo sapiens
NCI-H522 = assay: In vitro cytotoxic activity against lung (H 522) cancer cell line.
SW-620 = assay: In vitro cytotoxic activity against colon (SW 620) cancer cell line.; type: functional
NCI/ADR-RES = assay: In vitro cytotoxic activity against ADR resistant breast cancer (MCF-7-ADR) cell line.; type: functional
M14 = assay: In vitro cytotoxic activity against melanoma (M 14) cancer cell line.; type: functional
A498 = assay: In vitro cytotoxic activity against renal (A 498) cancer cell line.; type: functional
SK-OV-3 = assay: In vitro cytotoxic activity against Ovarian (SK-OV3) cell line.; type: functional
DU-145 = assay: In vitro cytotoxic activity against prostate (DU-145) cancer cell line.; type: functional

| Compound | GI50 (NCI-H522) [µM] | GI50 (SW-620) [µM] | GI50 (NCI/ADR-RES) [µM] | GI50 (M14) [µM] | GI50 (A498) [µM] | GI50 (SK-OV-3) [µM] | GI50 (DU-145) [µM] |
| --- | --- | --- | --- | --- | --- | --- | --- |
| COc1cc([C@@H]2c3cc4c(cc3[C@H](O)[C@H]3COC(OCCO)[C@H]23)OCO4)cc(OC)c1OC (stereo not given in full) | 10 | 70 | 70 | 60 | 0.01 | 0.09 | 20 |
| COc1cc([C@@H]2c3cc4c(cc3[C@@H](O)[C@H]3COC(CC(C)=O)[C@@H]23)OCO4)cc(OC)c1O (stereo not given in full) | 0.8 | 0.1 | 0.8 | 0.8 | 0.08 | 0.3 | 0.1 |
| COC(=O)CC1OC[C@H]2[C@H]1[C@H](c1cc(OC)c(O)c(OC)c1)c1cc3c(cc1[C@H]2O)OCO3 (stereo not given in full) | 9 | 20 | 60 | > 100 | > 100 | 0.5 | > 100 |
| COC(=O)CC1OC[C@H]2[C@H]1[C@H](c1cc(OC)c(OC)c(OC)c1)c1cc3c(cc1[C@@H]2O)OCO3 (stereo not given in full) | 8 | 70 | 70 | > 100 | < 0.01 | 4 | 60 |
| COc1cc([C@@H]2c3cc4c(cc3[C@H](O)[C@H]3COC(=O)[C@H]23)OCO4)cc(OC)c1OC [PODOFILOX] | 0.7 | 2 | 0.6 | 0.07 | 0.08 | 0.9 | 0.04 |
| COCCOC1OC[C@H]2[C@H]1[C@H](c1cc(OC)c(OC)c(OC)c1)c1cc3c(cc1[C@@H]2O)OCO3 (stereo not given in full) | 0.09 | 80 | > 100 | > 100 | 0.05 | 20 | 7 |
| COc1cc([C@@H]2c3cc4c(cc3[C@@H](O[C@@H]3O[C@@H]5CO[C@@H](C)O[C@H]5[C@H](O)[C@H]3O)[C@H]3COC(=O)[C@H]23)OCO4)cc(OC)c1O [ETOPOSIDE] | 0.9 | 90 | 25 | < 0.01 | 8 | < 0.01 | 2 |
| COc1cc([C@@H]2c3cc4c(cc3[C@H](O)[C@H]3COC(OCCF)[C@H]23)OCO4)cc(OC)c1OC (stereo not given in full) | 80 | 70 | 50 | 60 | 80 | > 100 | 80 |
| COc1cc([C@@H]2c3cc4c(cc3[C@H](O)[C@H]3COC(CC(C)=O)[C@H]23)OCO4)cc(OC)c1OC (stereo not given in full) | 20 | 60 | 60 | 20 | 0.02 | 6 | 20 |
| COc1cc([C@@H]2c3cc4c(cc3[C@H](O)[C@H]3COC(CCO)[C@H]23)OCO4)cc(OC)c1OC (stereo not given in full) | 0.05 | > 100 | > 100 | > 100 | 0.05 | 0.8 | 0.5 |
